Test results published in patent US6951878B2, “Benzo[b]thiophenyl or tetrahydro-benzo[b]thiophenyl modulators of protein tyrosine phosphatases (PTPases)” (Novo Nordisk A/S, priority 1998, dated 2005).
Where a name gives a salt, the structure may show the parent alone.

Biological target: T1, truncated form of PTP1B (corresponding to the first 321 amino acids) (Homo sapiens, UniProt P18031)
T1 construct: a truncated form of PTP1B (corresponding to the first 321 amino acids); made in house; host or cells: E. coli
T1 sequence (P18031 1-321): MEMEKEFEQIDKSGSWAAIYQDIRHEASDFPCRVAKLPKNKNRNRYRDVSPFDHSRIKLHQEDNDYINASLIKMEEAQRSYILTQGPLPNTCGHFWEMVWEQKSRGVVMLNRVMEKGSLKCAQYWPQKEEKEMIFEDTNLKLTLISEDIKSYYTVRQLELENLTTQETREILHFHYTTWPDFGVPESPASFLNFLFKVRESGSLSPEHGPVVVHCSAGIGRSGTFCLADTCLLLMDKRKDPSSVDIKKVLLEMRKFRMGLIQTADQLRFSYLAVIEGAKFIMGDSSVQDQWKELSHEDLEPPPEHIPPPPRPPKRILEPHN
Test: Inhibition of PTP1B, p-nitrophenyl phosphate substrate
Format: biochemical
Details: substrate p-nitrophenyl phosphate 0.16 to 10 mM; 100 mM sodium acetate pH 5.5; 25° C. for 60 minutes; absorbance at 405 nm
Description: The assay conditions are as follows. Appropriate concentrations of the compounds of the invention are added to the reaction mixtures containing different concentrations of the substrate, p-nitrophenyl phosphate (range: 0.16 to 10 mM—final assay concentration). The buffer used was 100 mM sodium acetate pH 5.5, 50 mM sodium chloride, 0.1% (w/v) bovine serum albumin and 5 mM dithiothreitol (total volume […]). The reaction was started by addition of the enzyme and carried out in microtiter plates at 25° C. for 60 minutes. The reactions are stopped by addition of NaOH. […] The data are analyzed using nonlinear regression fit to classical Michaelis Menten enzyme kinetic models. Inhibition is expressed as Ki values in μM.

| SMILES | Ki [µM] |
| --- | --- |
| O=C(O)C(=O)Nc1sc2c(c1C(=O)O)CCN(C(=O)c1ccccc1)C2 [Example 1, 6-Benzoyl-2-(oxalyl-amino)-4,5,6,7-tetrahydro-thien[2,3-c]pyridine-3-carboxylic acid, Mono Sodium Salt] | 51 |
| O=C(O)C(=O)Nc1sc2c(c1C(=O)O)CCN(CCc1ccccc1)C2 [Example 6] | 3 |
